Reference: patent US9586945B2, “Aminochromane, aminothiochromane and amino-1,2,3,4-tetrahydroquinoline derivatives, pharmaceutical compositions containing them, and their use in therapy” (AbbVie Deutschland GmbH & Co. KG, priority 2013, dated 2017)

How the values were obtained:
[1] = Metabolic stability in human liver microsomes; type: in vitro ADME; conditions: 0.5 μM test substance, NADPH, 37° C., scaled microsomal clearance, examples marked * tested as fumarate salts
Experimental: Metabolic stability was determined as follows:
0.5 μM test substance was preincubated together with human liver microsomes (0.25 mg of microsomal protein/[…]) in 0.05 M potassium phosphate buffer of pH 7.4 in microtiter plates at 37° C. for 5 min. The reaction was started by adding NADPH (1.0 mM). After 0, 5, 10, 15, 20 and 30 min the reaction was stopped and cooled with twice the amount of quench solution consisting of acetonitrile/methanol 1:1, and containing 0.2 μM carbutamide. The samples were frozen until analyzed. The remaining concentration of undegraded test substance was determined by LC MSMS. The half-life (T1/2) was determined from the gradient of the signal of test substance/unit time plot, al-lowing to calculate the half-life of the test substance, assuming first order kinetics, from the de-crease in the concentration of the compound with time. The microsomal clearance (mClint) was calculated as follows: mClint=((ln(2)/t1/2)/Microsomal Protein Concentration (mg/ml))*1000, leading to the unit of uL/min/mg. The scaled clearance (mClin_scaled) was calculated as mCLint_scaled=m CLint*(Microsomal Yield (mg/kg BW))/1000000*60, leading to the units L/hr/kg. The Microsomal Yield is defined by the specifics of the used microsomes. Calculations were modified from references: Di, The Society for Biomolecular Screening, 2003, 453-462; Obach, DMD, 1999 vol 27. N 11, 1350-1359.

[2] = target: human GlyT1c transporter (Homo sapiens (Human), UniProt P48067); experiment: Radioligand binding assay using recombinant CHO cell membranes expressing human GlyT1; conditions: examples marked * tested as fumarate salts, read-out: radioligand binding Kiapp
Chain of human GlyT1c transporter (P48067 whole entry): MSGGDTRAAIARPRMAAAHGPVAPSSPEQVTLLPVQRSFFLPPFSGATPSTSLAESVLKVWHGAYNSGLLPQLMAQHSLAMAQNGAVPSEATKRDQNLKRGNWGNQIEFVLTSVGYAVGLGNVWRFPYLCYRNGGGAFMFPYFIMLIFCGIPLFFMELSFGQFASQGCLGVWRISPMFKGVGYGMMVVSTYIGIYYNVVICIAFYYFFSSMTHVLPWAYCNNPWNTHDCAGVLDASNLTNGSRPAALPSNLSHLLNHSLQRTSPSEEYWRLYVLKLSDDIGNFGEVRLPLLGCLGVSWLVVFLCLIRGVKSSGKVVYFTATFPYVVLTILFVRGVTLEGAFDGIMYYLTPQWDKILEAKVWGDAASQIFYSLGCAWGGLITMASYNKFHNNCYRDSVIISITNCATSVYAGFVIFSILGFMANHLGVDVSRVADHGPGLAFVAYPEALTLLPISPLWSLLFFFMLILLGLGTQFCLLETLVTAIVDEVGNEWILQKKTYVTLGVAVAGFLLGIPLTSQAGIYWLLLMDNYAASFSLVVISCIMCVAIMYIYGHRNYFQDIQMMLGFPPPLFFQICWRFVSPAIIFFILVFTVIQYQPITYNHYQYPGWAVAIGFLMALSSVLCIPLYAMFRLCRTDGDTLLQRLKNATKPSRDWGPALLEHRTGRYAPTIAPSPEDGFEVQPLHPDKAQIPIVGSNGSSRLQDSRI

| SMILES | human mCl [1] | Ki [2] [nM] |
| --- | --- | --- |
| CCCS(=O)(=O)NC1CN(c2ccc3c(c2)C(Cc2ccccc2)C(NC)CO3)C1 (racemic) [Example 11, Cis-N-(1-(4-benzyl-3-(methylamino)chroman-6-yl)azetidin-3-yl)propane-1-sulfonamide] | ≦5 L/h/Kg | ≤ 10 |
| CNC1COc2ccc(N3CC(NS(=O)(=O)CC4CC4)C3)cc2C1Cc1ccccc1 (racemic) [Example 13, Cis-N-(1-(4-benzyl-3-(methylamino)chroman-6-yl)azetidin-3-yl)-1-cyclopropylmethanesulfonamide] | ≦5 L/h/Kg | ≤ 10 |
| CCS(=O)(=O)NC1CN(c2ccc3c(c2)[C@H](Cc2ccccc2)[C@H](N2CCC2)CO3)C1 (relative stereo) [Example 2, Cis-N-(1-(3-(azetidin-1-yl)-4-benzylchroman-6-yl)azetidin-3-yl)ethanesulfonamide] | ≦5 L/h/Kg | ≤ 1000 |
| CCCS(=O)(=O)NC1CN(c2ccc3c(c2)[C@H](Cc2ccccc2)[C@H](N2CCC2)CO3)C1 (relative stereo) [Example 3, Cis-N-(1-(3-(azetidin-1-yl)-4-benzylchroman-6-yl)azetidin-3-yl)propane-1-sulfonamide] | ≦5 L/h/Kg | ≤ 100 |
| O=S(=O)(CC1CC1)NC1CN(c2ccc3c(c2)[C@H](Cc2ccccc2)[C@H](N2CCC2)CO3)C1 (relative stereo) [Example 4, Cis-N-(1-(3-(azetidin-1-yl)-4-benzylchroman-6-yl)azetidin-3-yl)-1-cyclopropylmethanesulfonamide] | ≦5 L/h/Kg | ≤ 100 |
| Cn1cc(S(=O)(=O)NC2CN(c3ccc4c(c3)[C@H](Cc3ccccc3)[C@H](N3CCC3)CO4)C2)cn1 (relative stereo) [Example 5, Cis-N-(1-(3-(azetidin-1-yl)-4-benzylchroman-6-yl)azetidin-3-yl)-1-methyl-1H-pyrazole-4-sulfonamide] | ≦5 L/h/Kg | ≤ 100 |
| Cn1cc(S(=O)(=O)NC2CN(c3ccc4c(c3)[C@H](Cc3ccccc3)[C@H](N3CCC3)CO4)C2)nn1 (relative stereo) [Example 6, Cis-N-(1-(3-(azetidin-1-yl)-4-benzylchroman-6-yl)azetidin-3-yl)-1-methyl-1H-1,2,3-triazole-4-sulfonamide] | ≦5 L/h/Kg | ≤ 10 |
| O=S(=O)(NC1CN(c2cc3c(cc2F)OC[C@@H](N2CCC2)[C@H]3Cc2ccccc2)C1)c1cccnc1F (relative stereo) [Example 8, Cis-N-(1-(3-(azetidin-1-yl)-4-benzyl-7-fluorochroman-6-yl)azetidin-3-yl)-2-fluoropyridine-3-sulfonamide] | ≦50 L/h/Kg | ≤ 1000 |
| O=S(=O)(NC1CN(c2cc3c(cc2F)OC[C@@H](N2CCC2)[C@H]3Cc2ccccc2)C1)c1cccnn1 (relative stereo) [Example 9, Cis-N-(1-(3-(azetidin-1-yl)-4-benzyl-7-fluorochroman-6-yl)azetidin-3-yl)pyridazine-3-sulfonamide] | ≦50 L/h/Kg | ≤ 1000 |
| O=S(=O)(NC1CN(c2ccc3c(c2)[C@H](Cc2ccccc2)[C@H](N2CCC2)CO3)C1)c1cccnc1F (relative stereo) [Example 10, Cis-N-(1-(3-(azetidin-1-yl)-4-benzylchroman-6-yl)azetidin-3-yl)-2-fluoropyridine-3-sulfonamide] | ≦5 L/h/Kg | ≤ 100 |
| CCS(=O)(=O)NC1CN(c2ccc3c(c2)[C@H](Cc2ccccc2)[C@H](NC)CO3)C1 (relative stereo) [Example 12, Cis-N-(1-(-4-benzyl-3-(methylamino)chroman-6-yl)azetidin-3-yl)ethanesulfonamide] | ≦5 L/h/Kg | ≤ 100 |
| CCS(=O)(=O)NC1CN(c2cc3c(cc2F)OC[C@H](NC)[C@@H]3Cc2ccccc2)C1 (relative stereo) [Example 14a, Cis-N-(1-(4-benzyl-7-fluoro-3-(methylamino)chroman-6-yl)azetidin-3-yl)ethanesulfonamide] | ≦5 L/h/Kg | – |
| CCS(=O)(=O)NC1CN(c2cc3c(cc2F)OC[C@H](NC)[C@H]3Cc2ccccc2)C1 (relative stereo) [Example 14b, trans-N-(1-(4-benzyl-7-fluoro-3-(methylamino)chroman-6-yl)azetidin-3-yl)ethanesulfonamide] | ≦5 L/h/Kg | – |
| CN[C@H]1COc2cc(F)c(N3CC(NS(=O)(=O)c4cn(C)cn4)C3)cc2[C@H]1Cc1ccccc1 (relative stereo) [Example 15a, Cis-N-(1-(4-benzyl-7-fluoro-3-(methylamino)chroman-6-yl)azetidin-3-yl)-1-methyl-1H-imidazole-4-sulfonamide] | ≦5 L/h/Kg | – |
| CN[C@H]1COc2cc(F)c(N3CC(NS(=O)(=O)c4cn(C)cn4)C3)cc2[C@@H]1Cc1ccccc1 (relative stereo) [Example 15b, trans-N-(1-(4-benzyl-7-fluoro-3-(methylamino)chroman-6-yl)azetidin-3-yl)-1-methyl-1H-imidazole-4-sulfonamide] | ≦5 L/h/Kg | – |
| N[C@@H]1COc2ccc(N3CC(NS(=O)(=O)CC4CC4)C3)cc2[C@@H]1Cc1ccccc1 (relative stereo) [Example 21, Cis-N-(1-(3-amino-4-benzylchroman-6-yl)azetidin-3-yl)-1-cyclopropylmethanesulfonamide] | ≦5 L/h/Kg | ≤ 10 |
| O=S(=O)(NC1CN(c2cc3c(cc2F)OC[C@@H](N2CCC2)[C@H]3Cc2ccccc2)C1)c1cncc(F)c1 (relative stereo) [Example 26, Cis-1-(4-benzyl-7-fluoro-6-(3-(5-fluoropyridine-3-sulfonamido)azetidin-1-yl)chroman-3-yl)azetidin-1-ium (E)-3-carboxyacrylate] | ≦50 L/h/Kg | ≤ 100 |

Now from value to compound:

| human mCl [1] | Ki [2] [nM] | SMILES |
| --- | --- | --- |
| ≦5 L/h/Kg | – | CCCS(=O)(=O)NC1CN(c2cc3c(cc2F)OC[C@H](NC)[C@@H]3Cc2ccccc2)C1 (relative stereo) [Example 16a, Cis-N-(1-(4-benzyl-7-fluoro-3-(methylamino)chroman-6-yl)azetidin-3-yl)propane-1-sulfonamide] |
| ≦5 L/h/Kg | – | CCCS(=O)(=O)NC1CN(c2cc3c(cc2F)OC[C@H](NC)[C@H]3Cc2ccccc2)C1 (relative stereo) [Example 16b, trans-N-(1-(4-benzyl-7-fluoro-3-(methylamino)chroman-6-yl)azetidin-3-yl)propane-1-sulfonamide] |
| ≦5 L/h/Kg | – | CN[C@H]1COc2cc(F)c(N3CC(NS(=O)(=O)c4cnn(C)c4)C3)cc2[C@H]1Cc1ccccc1 (relative stereo) [Example 17a, Cis-N-(1-(4-benzyl-7-fluoro-3-(methylamino)chroman-6-yl)azetidin-3-yl)-1-methyl-1H-pyrazole-4-sulfonamide] |
| ≦5 L/h/Kg | – | CN[C@H]1COc2cc(F)c(N3CC(NS(=O)(=O)c4cnn(C)c4)C3)cc2[C@@H]1Cc1ccccc1 (relative stereo) [Example 17b, trans-N-(1-(4-benzyl-7-fluoro-3-(methylamino)chroman-6-yl)azetidin-3-yl)-1-methyl-1H-pyrazole-4-sulfonamide] |
| ≦50 L/h/Kg | – | CN[C@H]1COc2cc(F)c(N3CC(NS(=O)(=O)c4cn(C)nn4)C3)cc2[C@H]1Cc1ccccc1 (relative stereo) [Example 18a, Cis-N-(1-(4-benzyl-7-fluoro-3-(methylamino)chroman-6-yl)azetidin-3-yl)-1-methyl-1H-1,2,3-triazole-4-sulfonamide] |
| ≦5 L/h/Kg | – | CN[C@H]1COc2cc(F)c(N3CC(NS(=O)(=O)c4cn(C)nn4)C3)cc2[C@@H]1Cc1ccccc1 (relative stereo) [Example 18b, trans-N-(1-(4-benzyl-7-fluoro-3-(methylamino)chroman-6-yl)azetidin-3-yl)-1-methyl-1H-1,2,3-triazole-4-sulfonamide] |
| ≦50 L/h/Kg | – | CN[C@H]1COc2cc(F)c(N3CC(NS(=O)(=O)CC4CC4)C3)cc2[C@H]1Cc1ccccc1 (relative stereo) [Example 19a, Cis-N-(1-(4-benzyl-7-fluoro-3-(methylamino)chroman-6-yl)azetidin-3-yl)-1-cyclopropylmethanesulfonamide] |
| ≦50 L/h/Kg | – | CN[C@H]1COc2cc(F)c(N3CC(NS(=O)(=O)CC4CC4)C3)cc2[C@@H]1Cc1ccccc1 (relative stereo) [Example 19b, trans-N-(1-(4-benzyl-7-fluoro-3-(methylamino)chroman-6-yl)azetidin-3-yl)-1-cyclopropylmethanesulfonamide] |
| – | ≤ 10 | CNC1COc2cc(F)c(N3CC(NS(=O)(=O)CC4CC4)C3)cc2C1Cc1ccccc1 (single isomer, unassigned) [Example 19a, Cis-N-(1-(4-benzyl-7-fluoro-3-(methylamino)chroman-6-yl)azetidin-3-yl)-1-cyclopropylmethanesulfonamide] |
| – | ≤ 10 | CNC1COc2cc(F)c(N3CC(NS(=O)(=O)CC4CC4)C3)cc2C1Cc1ccccc1 (single isomer, unassigned) [Example 19b, trans-N-(1-(4-benzyl-7-fluoro-3-(methylamino)chroman-6-yl)azetidin-3-yl)-1-cyclopropylmethanesulfonamide] |
